Test results published in ChEMBL document CHEMBL1782006, “Discovery of diphenylmethane analogs as anti-bovine diarrhea viral agents” (Bioorg Med Chem Lett, 2009).

What was measured:
[1] = Cytotoxicity in MDBK cells assessed as reduction in cell viability; type: cell-based, Bos taurus; details: cattle
[2] = tested on: Bovine viral diarrhea virus 1; assay: Antiviral activity against BVDV1 Nose infected in MDBK cells assessed as inhibition of virus replication-induced cell destruction; type: functional, organism-based; details: Bovine viral diarrhea virus isolates and strains
[3] = Selectivity index, ratio of CC50 for MDBK cells to EC50 for antiviral activity against BVDV1 Nose

| SMILES | EC50 [2] [µM] | CC50 [1] [µM] | Ratio CC50/EC50 [3] |
| --- | --- | --- | --- |
| CCC(CC)(c1ccc(NCC(O)C(C)(C)C)c(C)c1)c1ccc(OC[C@@H](O)CO)c(C)c1 (stereo partly drawn) | 25 | 43 | 1.72 |
| CCN(CC)C(=O)Oc1ccc(C(CC)(CC)c2ccc(NC(C)=O)c(C)c2)cc1C | 10 | 50 | 5 |
| CCC(CC)(c1ccc(OCC(=O)C(C)(C)C)c(C)c1)c1ccc(N(CC(=O)C(C)(C)C)Cc2ccccc2)c(C)c1 | 28 | > 100 | – |
| Nc1ccc(C2(c3ccc(O)cc3)CCCCC2)cc1 | > 42 | 42 | – |
| CCC(CC)(c1ccc(O)cc1)c1ccc(O)cc1 | 10 | 39 | 3.9 |
| CC[Si](CC)(c1ccc(OCC(=O)C(C)(C)C)cc1)c1ccc(OCC(=O)C(C)(C)C)cc1 | 6.2 | > 100 | – |
| CC[Si](CC)(c1ccc(O)cc1)c1ccc(OCC(=O)C(C)(C)C)cc1 | 8 | 46.8 | 5.85 |

Further lines, with some results ahead:

| EC50 [2] [µM] | SMILES | CC50 [1] [µM] | Ratio CC50/EC50 [3] |
| --- | --- | --- | --- |
| 13 | Cc1cc(C2(c3ccc(OCC(=O)C(C)(C)C)c(C)c3)CCCC2)ccc1OCC(=O)C(C)(C)C | > 100 | – |
| 12 | Cc1cc(C(C)(C)c2ccc(OCC(=O)C(C)(C)C)c(C)c2)ccc1OCC(=O)C(C)(C)C | > 100 | – |
| 8.9 | CCC(CC)(c1ccc(NCC(=O)C(C)(C)C)c(C)c1)c1ccc(OCC(=O)C(C)(C)C)c(C)c1 | 82 | 9.21 |
| 12.8 | Cc1cc([Si](C)(C)c2ccc(OCC(=O)C(C)(C)C)c(C)c2)ccc1OCC(=O)C(C)(C)C | > 100 | – |
| 8.6 | CCC(CC)(c1ccc(O)c(C)c1)c1ccc(OCC(=O)C(C)(C)C)c(C)c1 | 5.23 | – |
| 6.3 | Cc1cc(C2(c3ccc(OCC(=O)C(C)(C)C)c(C)c3)CCC2)ccc1OCC(=O)C(C)(C)C | > 100 | – |
| 8.4 | CC[Si](CC)(c1ccc(OCC(=O)C(C)(C)C)c(C)c1)c1ccc(OCC(=O)C(C)(C)C)c(C)c1 | > 100 | – |
